Measured values published in PubChem BioAssay (NCI).
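Interpolation was linear, between the two tested concentrations surrounding the appropriate level; five concentrations were tested over 48 hours in 96-well plates. Abbreviation: GI50, concentration required for 50% inhibition of growth. The concentration for full growth arrest is given as TGI.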

Tests used:
Experiment in all cases: NCI anticancer screen, dose series, 48 h
TK-10 renal = system: TK-10 renal
HOP-62 NSCLC = system: HOP-62 NSCLC
HCT-15 colon = system: HCT-15 colon
HS 578T breast = system: HS 578T breast
SF-539 CNS = system: SF-539 CNS
PC-3 prostate = system: PC-3 prostate
A498 renal = system: A498 renal
SK-OV-3 ovarian = system: SK-OV-3 ovarian
CAKI-1 renal = system: CAKI-1 renal
MCF7 breast = system: MCF7 breast

Compound	GI50 (TK-10 renal)	TGI (TK-10 renal)	GI50 (HOP-62 NSCLC)	TGI (HOP-62 NSCLC)	GI50 (HCT-15 colon)	TGI (HCT-15 colon)	GI50 (HS 578T breast)	TGI (HS 578T breast)	GI50 (SF-539 CNS)	TGI (SF-539 CNS)	GI50 (PC-3 prostate)	TGI (PC-3 prostate)	GI50 (A498 renal)	TGI (A498 renal)	GI50 (SK-OV-3 ovarian)	TGI (SK-OV-3 ovarian)	TGI (CAKI-1 renal)	TGI (MCF7 breast)	GI50 (CAKI-1 renal)	GI50 (MCF7 breast)
COc1ccc(/C=N\Nc2ccc([N+](=O)[O-])cn2)cc1OC	3180 nM	7.73 µM	10500 nM	> 100 µM	> 100000 nM	> 100 µM	21 µM	> 100 µM	4370 nM	23.4 µM	> 100000 nM	> 100 µM	3.43 µM	59.6 µM	3.48 µM	24.3 µM	–	–	–	–
CC(=O)On1c(-c2ccccc2-c2nc3ccccc3n2OC(C)=O)nc2ccccc21	–	> 100 µM	–	> 100 µM	–	> 100 µM	–	> 100 µM	–	> 100 µM	–	58.6 µM	–	–	–	> 100 µM	> 100 µM	> 100 µM	–	–
N#C/C(=C1\SC(N=Nc2ccccc2)C(=O)N1c1ccccc1)c1nc2ccccc2[nH]1 (centres undefined)	–	> 100 µM	–	73.6 µM	–	> 100 µM	–	–	–	64.4 µM	–	–	–	> 100 µM	–	> 100 µM	> 100 µM	–	–	–
CC(=O)[CH-]C(=O)c1ccccc1.CC(=O)[CH-]C(=O)c1ccccc1.CCOCC[O-].CCOCC[O-].[Ti+4]	–	–	25900 nM	85.8 µM	28300 nM	91.9 µM	–	–	19100 nM	50.4 µM	–	–	22.9 µM	47.9 µM	25.2 µM	74.9 µM	57.8 µM	–	19.2 µM	–
O=C(Nc1cccc(O)c1)C(=O)C(C(=O)c1ccc(Cl)c(Cl)c1)C1OC(=O)c2ccccc21 (centres undefined)	–	60.3 µM	–	–	–	35 µM	–	–	–	–	–	–	–	41.9 µM	–	51.1 µM	75 µM	–	–	–
CCN(CC)CCCNC(=O)c1c2c(n3ccccc13)C(=O)c1ncccc1C2=O	–	–	586 nM	2.78 µM	935 nM	2.54 µM	2.46 µM	7.3 µM	1070 nM	2.45 µM	616 nM	6.65 µM	1.66 µM	3.27 µM	1.59 µM	5.65 µM	–	1.76 µM	–	298 nM
O=C1OC(O)C(Oc2c(Cl)cccc2Cl)=C1Cl (centres undefined)	–	69.1 µM	–	34.7 µM	–	29 µM	–	–	–	32.3 µM	–	–	–	51.1 µM	–	43.5 µM	48 µM	–	–	–
C=C1CCC2C(C)(COC(=O)CC)C(OC(=O)CC)CCC2(C)C1C/C=C1/C(=O)OCC1OC(=O)CC (centres undefined)	2040 nM	5.59 µM	1700 nM	3.27 µM	1960 nM	6 µM	3.41 µM	25.5 µM	1840 nM	4.17 µM	2170 nM	4.91 µM	4.05 µM	13.3 µM	3.85 µM	9.74 µM	3.37 µM	–	1.65 µM	–
CCOC(=O)C(C)(C)Oc1ccc(/C=C/C(=O)c2ccc(Cl)cc2)cc1	–	> 100 µM	–	> 100 µM	–	34.3 µM	–	–	–	34 µM	–	–	–	52.8 µM	–	–	–	–	–	–
CC/C(CC(=O)CCC(=O)Nc1ccccc1[N+](=O)[O-])=N/NC(=O)C[n+]1ccccc1	–	> 100 µM	–	> 100 µM	–	> 100 µM	–	–	–	> 100 µM	–	–	–	> 100 µM	–	> 100 µM	> 100 µM	–	–	–
FC(F)(F)C1(Br)C(c2ccccc2)=C1c1ccccc1	–	48.6 µM	–	39.4 µM	–	28 µM	–	–	–	37 µM	–	–	–	–	–	> 100 µM	54.7 µM	–	–	–
C=C[C@@]1(O)CCCC2=C(C(=O)OCC)CC[C@]21C	–	> 100 µM	–	–	–	> 100 µM	–	–	–	> 100 µM	–	–	–	–	–	> 100 µM	–	–	–	–
O=C1C(Cl)C(c2ccccc2O)N1n1cnc2ccccc2c1=O (centres undefined)	–	> 100 µM	–	> 100 µM	–	15.1 µM	–	–	–	–	–	–	–	–	–	> 100 µM	> 100 µM	–	–	–
CC1=NN(C(=O)c2ccc([N+](=O)[O-])cc2)C(=O)C1N=Nc1ccccc1C(=O)O (centres undefined)	–	> 100 µM	–	–	–	–	–	–	–	> 100 µM	–	–	–	> 100 µM	–	> 100 µM	> 100 µM	–	–	–
O=[N+]([O-])C1Cc2ccccc2OC1c1ccccc1 (centres undefined)	–	> 100 µM	–	83.2 µM	–	–	–	–	–	89.2 µM	–	–	–	> 100 µM	–	> 100 µM	99 µM	–	–	–
CN1C(=O)C(=O)c2cc3c(c4c2c1cc1ccccc14)OCO3	–	> 100 µM	–	> 100 µM	–	> 100 µM	–	–	–	> 100 µM	–	–	–	> 100 µM	–	> 100 µM	> 100 µM	–	–	–
O=S1Nc2c(Cl)cc(Cl)c3c(Cl)cc(Cl)c(c23)N1	–	> 100 µM	–	–	–	> 100 µM	–	–	–	> 100 µM	–	–	–	74.4 µM	–	> 100 µM	95.2 µM	–	–	–
CN(C)c1nc(=Nc2cccc(Cl)c2)ss1	–	> 100 µM	–	> 100 µM	–	27.9 µM	–	–	–	32.8 µM	–	–	–	93 µM	–	> 100 µM	33.4 µM	–	–	–
CCOC(=N)/C(=C1\OC(N)=C(c2ccc(Cl)cc2)C1=O)c1ccc(Cl)cc1	–	51.9 µM	–	43.6 µM	–	–	–	–	–	30.2 µM	–	–	–	32.5 µM	–	> 100 µM	62.8 µM	–	–	–
Cc1cc(N2CCSCC2)nc(NC2CCCC(Nc3ccnc4cc(Cl)ccc34)C2)n1 (centres undefined)	2050 nM	4.58 µM	1690 nM	3.38 µM	1240 nM	2.77 µM	1.87 µM	4.64 µM	1690 nM	3.16 µM	2100 nM	4.52 µM	2.07 µM	4.64 µM	1.98 µM	4.22 µM	–	–	–	–
CCOc1cccc2ccc[n+](CC)c12	–	> 100 µM	–	> 100 µM	–	–	–	–	–	> 100 µM	–	–	–	–	–	> 100 µM	–	–	–	–
O=c1[nH]c2cc(Cl)ccc2nc1/C(=N\O)C(O)c1ccc([N+](=O)[O-])cc1 (centres undefined)	–	> 100 µM	–	> 100 µM	–	> 100 µM	–	–	–	> 100 µM	–	–	–	> 100 µM	–	> 100 µM	> 100 µM	–	–	–
COC(=O)Cc1ccc(Oc2cnc3cc(F)c(F)cc3n2)cc1	> 100000 nM	> 100 µM	> 100000 nM	> 100 µM	> 100000 nM	> 100 µM	> 100 µM	> 100 µM	> 100000 nM	> 100 µM	63700 nM	> 100 µM	–	–	> 100 µM	> 100 µM	> 100 µM	> 100 µM	> 100 µM	> 100000 nM
